Test results from paper PMC10447463, “Data-mining unveils structure–property–activity correlation of viral infectivity enhancing self-assembling peptides” (Nature Communications, 2023).
Where “and” joins values, the source holds several entries; their conditions need not be identical. Equal entries are not always repeated. Where two headings read alike, the source gives them in different places.

Columns and labels:
[1] = type: physicochemical; parameters: key to Fibril / Fibril Formation / TEM 2cat / Fibril: 1 = fibrils present; 0 non-fibrillar structures; conditions: for TEM 2cat: fibril category by TEM; for Fibril / Fibril Formation: 1 mg/mL, uranyl acetate stain, qualitative
[2] = Turbidity, derived count rate of scattered light; type: physicochemical; conditions: for Count Rate / kcps: derived count rate of scattered light at 633 nm, 173°, from zeta-potential measurement, 0.1 mg/mL in 1 mM KCl after 1 d at 1 mg/mL in PBS, turbidity / microscopic aggregation, mean of triplicate
Method: 4 µL of 1 mg/mL peptide fibrils solution is added to a 20 µL, 50 µM ThT–solution in PBS. The mixture is incubated for 15 min at RT to allow binding of ThT dye with β–sheet rich structures. For reference PBS (4 µL) was added instead of peptide fibril solution. The samples were placed in black UV Star® 384 microliter well–plates (Greiner bio–one). Fluorescence spectra were recorded on an Infinite® M1000 PRO microplate reader (Tecan) at λem = 488 nm upon excitation at λex = 440 nm with 10 nm bandwidths and multiple reads per well (3×3). Measurements were repeated in triplicates and averaged with standard deviation. […] Zeta-Potential. For the determination of the surface charge of aggregated peptides zeta-potential measurements were conducted with a Zetasizer Nano ZS, Malvern Instruments. Unless stated otherwise the peptides were dissolved from DMSO (10 mg/mL) in PBS (pH 7.4) to concentration of 1 mg/mL and incubated for 1d at RT. Just before the measurement the 60 µL of the peptides were further diluted in 600 µL KCl (aq, 1 mM) in a 1 mL disposable folded capillary cells (DTS–1060, Zetasizer Nano series, Malvern). The zeta potential of the peptides was derived from the electrophoretic mobility based on the Smoluchowski formula. All measurements were averaged over two individually performed experiments and conducted in triplicates for each sample. Aggregate analysis. […] Furthermore, fluorescence microscopy was conducted by staining 1 µL preformed fibrils (1 mg/mL) with 9 µL ThT (50 µM). Brightfield microscopy was performed simultaneously to evaluate aggregation also for non ThT-active fibrils. The measurements were performed on a Leica DMi8 microscope with 10x air objective and equipped with a Leica MC170 HD camera with a filter setting λem = 527/30 nm upon excitation at λex = 480/40 nm) and processed with the Leica LASX software. To quantify size and number of microscopic aggregation of particles > 10 µm^2 at least 3 independently measured images were analyzed via the 3D object counter analysis tool of ImageJ, v 1.53f51. Sum–frequency generation. The SFG experiments were carried out with a femtosecond Ti: Sapphire amplified laser system (Spitfire Ace, Spectra–Physics, 800 nm, 40 fs, 1 kHz) with 5 W output power. We used 2 W to pump an optical parametric amplifier (TOPAS, light conversion) with a non–collinear difference frequency generation stage to generate broadband IR pulses. Another 1 W of the laser output passed through an etalon to generate narrowband visible pulses (10 cm^-1). The incident angles of the visible and IR beams were 36° and 41° with respect to the surface normal, respectively. The visible (13 µJ) and IR (5 µJ) pulses were overlapped spatially and temporally at the sample position. Subsequently, the generated SFG pulse was guided into a spectrograph (Acton SP 300i, Princeton Instruments), and detected with an EMCCD (Newton, Andor Technology). To avoid IR absorption of water vapor, we purged N2 for the measurement. All spectra were collected in the ssp (denoting s-, s- and p-polarized SFG, visible and IR, respectively) polarization combination. The spectra were normalized to the non–resonant signal taken from z–cut quartz after subtracting a background spectrum. […]
ways to determine turbidity of samples, this can be via transmittance and via scattering. Transmittance […]
as it is an easy and fast method.10,11 However, transmittance contributes not only from µm-sized aggregates but also nm-sized aggregates such as distinct fibrils, which makes hard to distinguish between fibril formation and micrometer sized aggregation. Although dynamic light scattering is a frequently applied method for determination of particle size, it cannot be conducted in solutions with anisotropic aggregates in micrometer size range, since the Stokes-Einstein relation is only applicable for homogeneous […] spherical particles.12 Further models describing scattering intensity and […]

[3] = system: HIV-1 infection of TZM-bl cells; assay: HIV-1 infectivity enhancement assay, β-galactosidase luminescence; type: cell-based; conditions: for Rel-EFC: infection relative to EF-C (QCKIKQIINMWQ = 1); for Log10 Infection Rel EFC: log10 of infection relative to EF-C; for Log Infectivity: Log10 infection relative to EF-C, asymmetric std dev errors; for Log Infectivity / Abs. Inf.: TZM-bl cells; for Log10 Infection Rel EF-C: HIV-1 infection of TZM-bl cells; for Abs. Inf.: absolute HIV-1 infection signal, β-galactosidase luminescence; for Abs. Inf. / RLU s-1: absolute infection rate, peptide 1.3 µM on cells, virus preincubated 10 min with fibrils, read 3 days post infection
[4] = TEM, 1 = fibrils present, 0 = non-fibrillar
[5] = TEM, 1 = fibrils present, 0 = non-fibrillar structures
[6] = Log10 of derived count rate of scattered light (turbidity)
[7] = log10 of derived count rate of scattered light (turbidity)
[8] = turbidity, Log10 of derived count rate of scattered light, Figure 3A source data
[9] = Fig. S7 panel A (plotted against β-sheet content)
[10] = Log10 of infection rate relative to EF-C, Figure 3A source data
[11] = infection rate relative to EF-C, log10, data of Figure 2D
[12] = infection rate relative to EF-C, log10, source data of Figure 2C
[13] = Fig. S7 panel B (plotted against CR), rounded to two decimals
[14] = logarithm of count rate in kcps

## KIKIQII
[1]; Fig S10 panel D
  TEM 2cat: 1
[1]; FigS12 panel A
  TEM 2cat: 1
[1]; FigS12 panel B, TEM
  Fibril: 1
[1]; TEM
  Fibril / Fibril Formation: 1
[1]; [4]
  Fibril: 1
[1]; [5]
  Fibril: 1
[2]; [6]
  Log10 Count Rate: 3.017
[2]
  Count Rate / kcps: 1039 kcps
[2]; [7]
  Log10 Count Rate: 3.017
[2]; [8]
  Log10 Count Rate: 3.017
[3]; 1.3 µM peptide
  Rel-EFC: 0,02
  Log10 Infection Rel EFC: -1,73
[3]; [9]
  Log Infectivity: -1.729
[3]; [10]
  Log10 Infection Rel EF-C: -1.73
[3]; [11]
  Log10 Infection Rel EF-C: -1.729
[3]; [12]
  Log10 Infection Rel EF-C: -1.729

## EIKIQINM
[1]; Fig S10 panel D
  TEM 2cat: 1
[1]; Fig S10 panel E
  Fibril: 1
[1]; FigS12 panel A
  TEM 2cat: 1
[1]; FigS12 panel B, TEM
  Fibril: 1
[1]; TEM
  Fibril / Fibril Formation: 1
[1]; [4]
  Fibril: 1
[1]; [5]
  Fibril: 1
[2]; [6]
  Log10 Count Rate: 3.45
[2]
  Count Rate / kcps: 2816 kcps
[2]; [7]
  Log10 Count Rate: 3.45
[2]; [8]
  Log10 Count Rate: 3.45
[3]; 1.3 µM peptide
  Rel-EFC: 0,1
  Log10 Infection Rel EFC: -1
[3]; [9]
  Log Infectivity: -1.001
[3]; [13]
  Log Infectivity: -1
[3]; [10]
  Log10 Infection Rel EF-C: -1
[3]; [11]
  Log10 Infection Rel EF-C: -1.001
[3]; [12]
  Log10 Infection Rel EF-C: -1.001
[3]
  Abs. Inf.: 3607

## KIKIQINMWQRGD
[1]; Fig S10 panel D
  TEM 2cat: 0
[1]; FigS12 panel A
  TEM 2cat: 0
[1]; FigS12 panel B, TEM
  Fibril: 0
[1]; TEM
  Fibril / Fibril Formation: 0
[1]; [4]
  Fibril: 0
[1]; [5]
  Fibril: 0
[2]; [6]
  Log10 Count Rate: 3.445
[2]
  Count Rate / kcps: 2783 kcps
[2]; [7]
  Log10 Count Rate: 3.445
[2]; [14]
  Log10 Count Rate: 3.4
[2]; [8]
  Log10 Count Rate: 3.445
[3]; 1.3 µM peptide
  Rel-EFC: 0,01
  Log10 Infection Rel EFC: -1,92
[3]; [9]
  Log Infectivity: -1.917
[3]; [10]
  Log10 Infection Rel EF-C: -1.92
[3]; [11]
  Log10 Infection Rel EF-C: -1.917
[3]; [12]
  Log10 Infection Rel EF-C: -1.917
[3]; HIV-1 infection relative to EF-C, Fig 23 plot, panels A and B, mean of 3 values
  Inf. rel. EF-C: 0.008366
[3]; HIV-1 infection relative to EF-C, Fig 23 plot, single data point, replicate 1
  Inf. rel. EF-C: 0.00461
[3]; HIV-1 infection relative to EF-C, Fig 23 plot, single data point, replicate 2
  Inf. rel. EF-C: 0.009457
[3]; HIV-1 infection relative to EF-C, Fig 23 plot, single data point, replicate 3
  Inf. rel. EF-C: 0.01103
[3]
  Abs. Inf.: 196.7
[3]; mean of triplicate
  Abs. Inf. / RLU s-1: 197 RLU s-1
[3]; n-fold infection vs virus only, relative to that of EF-C, 1.3 µM peptide
  Inf. rel. EF-C: 0.01

## CKIKQII
[1]; Fig S10 panel D
  TEM 2cat: 1
[1]; Fig S10 panel E
  Fibril: 1
[1]; FigS12 panel A
  TEM 2cat: 1
[1]; FigS12 panel B, TEM
  Fibril: 1
[1]; TEM
  Fibril / Fibril Formation: 1
[1]; [4]
  Fibril: 1
[1]; [5]
  Fibril: 1
[2]; [6]
  Log10 Count Rate: 1.873
[2]
  Count Rate / kcps: 74 ± 27 kcps and 75 kcps
[2]; [7]
  Log10 Count Rate: 1.873
[2]; [14]
  Log10 Count Rate: 1.873
[2]; [8]
  Log10 Count Rate: 1.873
[3]; 1.3 µM peptide
  Rel-EFC: 0,04
  Log10 Infection Rel EFC: -1,38
[3]; [9]
  Log Infectivity: -1.379
[3]; [13]
  Log Infectivity: -1.38
[3]; [10]
  Log10 Infection Rel EF-C: -1.38
[3]; [11]
  Log10 Infection Rel EF-C: -1.379
[3]; [12]
  Log10 Infection Rel EF-C: -1.379
[3]; mean of triplicate
  Abs. Inf. / RLU s-1: 796.7 RLU s-1
[3]; peptide 0.26 µM, mean of triplicate
  Abs. Infection at 0.26 µM: 430
